# Key:
# [1] = system: passive cutaneous anaphylaxis (PCA); assay: Effect on passive cutaneous anaphylaxis (PCA); format: in vivo, male Wister rats; settings: 1 hour prior to antigen challenge, rat
# Procedure: (1) Effect on passive cutaneous anaphylaxis (PCA)
# A serum containing the homocytotropic antibody was intracutaneously injected at four points of the shaven back of the male Wister rats weighing 180 to 200 g. Fourty-eight hours after the injection, a physiological saline containing 2.0 mg of DNP-As and 2.5 mg of Evans Blue to induce response, and the rats were dehematized to death in 30 minutes. […] The present compounds were administered to the rats 1 hour prior to the antigen challenge.
# [2] = Acute toxicity test; settings: mouse, in vivo, ip; male ddy mice, intraperitoneal, solution in physiological saline, up-down method
# Procedure: Male ddy mice weighing about 20 g were used. A solution of the compound in physiological saline was injected intraperitoneally. The dose lethal to 50% of mice was determined by the up-down method.
SMILES,LD50 [2],inhibition in vivo at 100 mg/kg [1],further results
"C[S+](C)CCC(=O)Nc1ccc(OCC(O)CO)cc1.Cc1ccc(S(=O)(=O)[O-])cc1 (centres unmarked) [Compound 4, 2-{4-(2,3-dihydroxypropoxy)phenylcarbamoyl}ethyldimethylsulfonium p-toluenesulfonate]",1040 mg/kg,,inhibition in vivo at 50 mg/kg [1]: 48.8%
"COCC(O)COc1ccc(NC(=O)CC[S+](C)C)cc1.Cc1ccc(S(=O)(=O)[O-])cc1 (centres unmarked) [Compound 7, 2-{4-(2-hydroxy-3-methoxypropoxy)phenylcarbamoyl}ethyldimethylsulfonium p-toluenesulfonate]",359 mg/kg,57%,
CCOCC(O)COc1ccc(NC(=O)CC[S+](C)C)cc1 (centres unmarked) [Compound 8],254 mg/kg,,inhibition in vivo at 20 mg/kg [1]: 57%
CCCOCC(O)COc1ccc(NC(=O)CC[S+](C)C)cc1 (centres unmarked) [Compound 10],171 mg/kg,47%,
C[S+](C)CCC(=O)Nc1ccc(OCC(O)COC2CCCCC2)cc1 (centres unmarked) [Compound 17],93.6 mg/kg,47%,
C[S+](C)CCC(=O)Nc1ccc(OCC(O)COc2ccccc2)cc1 (centres unmarked) [Compound 18],112 mg/kg,34%,
COCC(COc1ccc(NC(=O)CC[S+](C)C)cc1)OC (centres unmarked) [Compound 19],254 mg/kg,,inhibition in vivo at 10 mg/kg [1]: 51.6%
CCOCC(COc1ccc(NC(=O)CC[S+](C)C)cc1)OCC (centres unmarked) [Compound 20],179 mg/kg,,inhibition in vivo at 50 mg/kg [1]: 35.1%
CCOCC(COc1ccc(NC(=O)CC[S+](C)C)cc1)OC(C)=O (centres unmarked) [Compound 25],233 mg/kg,63.6%,
CCCOCC(COc1ccc(NC(=O)CC[S+](C)C)cc1)OCCC (centres unmarked) [Compound 29],75.2 mg/kg,,inhibition in vivo at 50 mg/kg [1]: 46.2%
CC(=O)OCC(COc1ccc(NC(=O)CC[S+](C)C)cc1)OC(C)=O (centres unmarked) [Compound 32],366 mg/kg,,inhibition in vivo at 10 mg/kg [1]: 47%
"C[S+](C)CCOc1ccccc1OCC(O)CO.Cc1ccc(S(=O)(=O)[O-])cc1 (centres unmarked) [Compound 40, 2-{2-(2,3-dihydroxypropoxy)phenoxy}ethyldimethylsulfonium p-toluenesulfonate]",283 mg/kg,,inhibition in vivo at 200 mg/kg [1]: 53.2%
C[S+](C)CCOc1cccc(OCC(O)CO)c1 (centres unmarked) [Compound 42],231 mg/kg,,inhibition in vivo at 200 mg/kg [1]: 58.4%
C[S+](C)CCOc1ccc(OCC(O)CO)cc1 (centres unmarked) [Compound 44],352 mg/kg,,inhibition in vivo at 200 mg/kg [1]: 57%
"COCC(O)COc1ccc(OCC[S+](C)C)cc1.Cc1ccc(S(=O)(=O)[O-])cc1 (centres unmarked) [Compound 45, 2-{4-(2-hydroxy-3-methoxypropoxy)phenoxy}ethyldimethylsulfonium p-toluenesulfonate]",302 mg/kg,,inhibition in vivo at 200 mg/kg [1]: 59%
CCOCC(O)COc1ccc(OCC[S+](C)C)cc1 (centres unmarked) [Compound 46],,64.8%,
CCCOCC(O)COc1ccc(OCC[S+](C)C)cc1 (centres unmarked) [Compound 47],293 mg/kg,,inhibition in vivo at 50 mg/kg [1]: 39.2%
CCOCCOCC(O)COc1ccc(OCC[S+](C)C)cc1 (centres unmarked) [Compound 48],302 mg/kg,,inhibition in vivo at 20 mg/kg [1]: 48%
C[S+](C)CCOc1ccc(OCC(O)COCC2CCCO2)cc1 (centres unmarked) [Compound 49],221 mg/kg,,inhibition in vivo at 20 mg/kg [1]: 42.5%
"C[S+](C)CCOc1ccc(OCC(O)COc2ccccc2)cc1.Cc1ccc(S(=O)(=O)[O-])cc1 (centres unmarked) [Compound 51, 2-{4-(2-hydroxy-3-phenoxypropoxy)phenoxy}ethyldimethylsulfonium p-toluenesulfonate]",150 mg/kg,56.7%,
CCOCC(COc1ccc(OCC[S+](C)C)cc1)OCC (centres unmarked) [Compound 52],132 mg/kg,53.3%,
C[S+](C)CCOc1ccc(OCC(O)COC(N)=O)cc1 (centres unmarked) [Compound 54],327 mg/kg,,inhibition in vivo at 20 mg/kg [1]: 51.8%
CC(=O)OCC(COc1ccc(OCC[S+](C)C)cc1)OC(C)=O (centres unmarked) [Compound 55],291 mg/kg,,inhibition in vivo at 50 mg/kg [1]: 55.2%
C[S+](C)CCOc1ccc(OCC(COC(=O)c2ccccc2)OC(=O)c2ccccc2)cc1 (centres unmarked) [Compound 56],85 mg/kg,44.7%,
